Assay results as given in publication PMC8497620, “Structure and inhibition of Cryptococcus neoformans sterylglucosidase to develop antifungal agents” (Nature Communications, 2021).
“And” between values parts separate entries of the source, which are not always exact repeats. Equal values may be shown once. Read-outs that look alike come from different tables or passages of the source.

Assays:
C. neoformans Sgl1 = C. neoformans Sgl1 (Cryptococcus neoformans var. grubii, UniProt J9W473); experiment: Sgl1 inhibition with res-glp substrate (HTS, single-compound dose-response); format: biochemical; conditions: for % Sgl1 Inhibition / inhibition at 0.125 µM / inhibition at 0.5 µM / inhibition at 1 µM / inhibition at 2 µM / inhibition at 4 µM / inhibition at 8 µM / inhibition at […]: substrate resorufin 3β-D-glucopyranoside (100 µM); for inhibition at 0.125 µM: read-out: % Sgl1 Inhibition, 0.125 µM compound; for inhibition at 0.5 µM: read-out: % Sgl1 Inhibition, 0.5 µM compound; for inhibition at 1 µM: read-out: % Sgl1 Inhibition, 1 µM compound; for inhibition at 2 µM: read-out: % Sgl1 Inhibition, 2 µM compound; for inhibition at 4 µM: read-out: % Sgl1 Inhibition, 4 µM compound; for inhibition at 8 µM: read-out: % Sgl1 Inhibition, 8 µM compound; for inhibition at […]: read-out: % Sgl1 Inhibition, […] compound; for IC50: res-glp as substrate (100 µM), primary screen, read-out: IC50 against Sgl1
Chain of C. neoformans Sgl1 (J9W473 entry or part of it): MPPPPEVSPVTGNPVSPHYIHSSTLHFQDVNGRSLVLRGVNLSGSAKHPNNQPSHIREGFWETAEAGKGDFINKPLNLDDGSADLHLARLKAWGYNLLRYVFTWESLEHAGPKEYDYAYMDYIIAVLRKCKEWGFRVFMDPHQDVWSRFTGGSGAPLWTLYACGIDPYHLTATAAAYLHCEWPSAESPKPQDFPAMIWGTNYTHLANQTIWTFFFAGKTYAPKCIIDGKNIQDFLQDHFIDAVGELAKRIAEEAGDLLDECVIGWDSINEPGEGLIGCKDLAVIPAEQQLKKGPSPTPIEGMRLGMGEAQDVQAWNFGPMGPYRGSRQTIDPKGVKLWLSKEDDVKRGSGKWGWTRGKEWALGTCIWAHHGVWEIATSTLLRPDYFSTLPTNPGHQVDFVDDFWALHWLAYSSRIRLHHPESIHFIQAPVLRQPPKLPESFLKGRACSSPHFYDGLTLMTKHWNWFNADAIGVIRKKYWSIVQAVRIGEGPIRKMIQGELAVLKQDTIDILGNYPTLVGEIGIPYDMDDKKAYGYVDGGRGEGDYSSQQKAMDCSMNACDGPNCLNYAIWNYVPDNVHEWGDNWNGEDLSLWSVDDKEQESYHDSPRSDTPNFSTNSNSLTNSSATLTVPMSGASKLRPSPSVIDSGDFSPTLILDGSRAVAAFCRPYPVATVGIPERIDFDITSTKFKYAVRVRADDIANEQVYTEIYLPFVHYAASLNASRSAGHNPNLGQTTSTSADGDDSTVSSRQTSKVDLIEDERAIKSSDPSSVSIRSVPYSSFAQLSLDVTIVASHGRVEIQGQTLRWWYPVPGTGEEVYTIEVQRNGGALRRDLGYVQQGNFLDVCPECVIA
Description: Resorufin-3β-D-glucopyranoside (res-glp, Sigma-Aldrich) enzyme kinetic assays were performed according to methods described by Urban et al.[16] with modifications. Reaction buffer contained 50 mM citric acid, 176 mM K2HPO4, pH 6, 0.01% Tween-20, and 10 mM sodium taurocholate. The reactions were carried out in black 96-well plates using 20 ng of enzyme with 100 μM res-glp substrate. In all, 10 μL/well of res-glp substrate was added to each well and the reaction was initiated by adding 20 μL enzyme (20 ng). After incubation at 37 °C for 30–40 min, the fluorescence was read at an excitation of 570 (±10) nm and an emission of 610 (±10) nm on a VersaMax™ Microplate Reader from Molecular Devices. A standard curve was prepared with serial dilutions of the free fluorophore, resorufin, in the same volume of assay buffer.
A ChemBridge DIVERSet-CL library (San Diego, CA) containing 50,000 compounds was screened to identify small molecules that inhibit C. neoformans Sgl1. The library was prepared in a 96-well plate format containing a cocktail of 10 compounds per well at 1 mM each in 100% DMSO. The cocktail plates were first diluted to 100 μM each (1:10 dilution in Dulbecco’s phosphate-buffered saline, DPBS) resulting in 10% DMSO. In order to screen the compound cocktails at […] in 1% DMSO in a final reaction volume of 30 μL an aliquot of 3 μL was added to 17 μL of buffer containing 20 ng of enzyme and the reaction was started adding 10 μL of 100 μM res-glp. A negative control without enzyme and positive controls with and without DMSO were prepared. The plates were incubated at 37 °C for 40 min.
The Z′-factor was used for the assessment of the efficiency of the HTS assay for each individual plate. Values greater than 0.5 has been considered as an indicator of an excellent screening assay quality.

C. neoformans H99 [1] = format: cell-based, Cryptococcus neoformans; conditions: for Ergosterol 3β-D-glucoside accumulation (pmol/ Inorganic phosphate): 100 µM; for accumulation of erg-glc, fold less than the mutant Cn Δsgl1: 500 µM, 24 h; for erg-glc accumulation compared to untreated Cn H99 control: 24 h of treatment
Description: C. neoformans H99 was cultivated in yeast nitrogen base (YNB) broth for 24 h at 37 °C with shaking. […] […] After that, the resultant pellets were re-counted and used for lipid extraction. Thenceforth the total lipid was extracted as described previously by Singh et al.[55]. The dried samples were resuspended in chloroform/methanol 2:1 ratio for LC-MS analysis. A standard erg-glc from Avanti Polar Lipids was used as a control for the calibration curve. Data were normalized to the total inorganic phosphate content in the sample.

C. neoformans H99 [2] = format: in vivo, Cryptococcus neoformans; conditions: Hit 1 intranasally, fluconazole intraperitoneally; for brain dissemination / CFU recovered from the brain: 14 days; for Lung (CFU/mL): 10 mg/kg/day
Description: (§1) For animal studies, 4-week-old CBA/J (Envigo) female mice were used. Mouse experiments were performed in full compliance with a protocol approved by Stony Brook University (IACUC number 341588) and in compliance with the United States Animal Welfare Act (Public Law 98–198). The experiments were carried out in facilities accredited by the Association for Assessment and Accreditation of Laboratory Animal Care. Mice were divided into sets of 12 mice for each treatment or control group (4 animals per cage) kept in an animal room (temperature, 22–24 °C; relative humidity, 35–45%) with artificial 12–12 h dark/light cycle. For the experiment with intraperitoneal (i.p.) treatment, mice were infected intranasally with 10 µL of a suspension containing 1 × 10^6 C. neoformans H99 cells and subsequently treated through i.p. injection with 10 mg/kg/day of hit 1 in a final volume of 100 µL of vehicle containing 10% PEG 200 in PBS. The untreated animals received 100 µL of vehicle. For the experiment with intranasal (i.n.) treatment, mice were infected with 1 × 10^5 C. neoformans H99 cells and received i.n. treatment with hit 1 in a final volume of 10 µL. Another group received treatment with 10 mg/kg/day of fluconazole i.p. and a third group received the combined treatment of hit1 by i.n. and fluconazole by i.p. Animals receiving only vehicle i.n. were used as a control group. In both experiments, three mice of each group were euthanized at day 3, 6, 9, and 14 post infection for CFU recovery from lungs and CFU recovery from brain on day 14.

C. neoformans H99 [3] = experiment: Mouse model of cryptococcosis, intraperitoneal treatment (CBA/J mice); format: in vivo, Cryptococcus neoformans; conditions: 10 mg/kg/day intraperitoneally; for CFU recovered from the brain: 14 days after infection; for lung CFU compared to vehicle-treated mice: days 3, 6, 9, 14; for Lung (CFU/mL): 10 mg/kg/day
Description: as §1

[4] = day 14 post infection, 10 mg/kg/day each

| SMILES | % Sgl1 Inhibition (C. neoformans Sgl1; 0.125 µM compound) | % Sgl1 Inhibition (C. neoformans Sgl1; 0.5 µM compound) | % Sgl1 Inhibition (C. neoformans Sgl1; 1 µM compound) | % Sgl1 Inhibition (C. neoformans Sgl1; 2 µM compound) | % Sgl1 Inhibition (C. neoformans Sgl1; 4 µM compound) | % Sgl1 Inhibition (C. neoformans Sgl1; 8 µM compound) | inhibition at 0.125 µM (C. neoformans Sgl1) [%] | inhibition at 0.5 µM (C. neoformans Sgl1) [%] | inhibition at 1 µM (C. neoformans Sgl1) [%] | inhibition at 2 µM (C. neoformans Sgl1) [%] | inhibition at 4 µM (C. neoformans Sgl1) [%] | inhibition at 8 µM (C. neoformans Sgl1) [%] | inhibition at […] (C. neoformans Sgl1) [%] | IC50 (C. neoformans Sgl1) | Ergosterol 3β-D-glucoside accumulation (pmol/ Inorganic phosphate) (C. neoformans H99 [1]; 12h) | Ergosterol 3β-D-glucoside accumulation (pmol/ Inorganic phosphate) (C. neoformans H99 [1]; 24h) | accumulation of erg-glc, fold less than the mutant Cn Δsgl1 (C. neoformans H99 [1]) | erg-glc accumulation compared to untreated Cn H99 control (C. neoformans H99 [1]) | further results |
| --- | --- | --- | --- | --- | --- | --- | --- | --- | --- | --- | --- | --- | --- | --- | --- | --- | --- | --- | --- |
| CC(C)c1nc(N[C@@H]2C[C@@H](CO)N(C)C2)c2cnn(C)c2n1 [Hit 15] | 9.082% and 9.377% and 8.377% | 26.2814% and 26.2434% and 24.9511% | 39.5402% and 38.9055% and 37.6785% | 58.3844% and 57.9199% and 56.5095% | 75.564% and 74.8313% and 74.139% | 85.0771% and 84.7714% and 84.105% | 10.2 | 27.9 | 40.8 | 59.6 | 76.4 | 85.5 | 14.9 | ~1000 nM and 1000 nM | 28100000 pmol/ Inorganic phosphate and 30500000 pmol/ Inorganic phosphate and 41500000 pmol/ Inorganic phosphate | 39400000 pmol/ Inorganic phosphate and 51600000 pmol/ Inorganic phosphate and 57400000 pmol/ Inorganic phosphate | about 10 fold | significant differences, especially in concentrations higher than 10 µM | Ergosterol 3β-D-glucoside accumulation (pmol/ Inorganic phosphate) (C. neoformans H99 [1]; 48h): 34400000 pmol/ Inorganic phosphate and 28300000 pmol/ Inorganic phosphate and 33700000 pmol/ Inorganic phosphate |
| CN1C[C@@H](NC(=O)Cc2ccc3c(c2)NC(=O)CO3)C[C@@H]1CO [Hit 9] | 56.0175% and 54.9266% and 54.4568% | 83.3956% and 82.99% and 82.7099% | 91.001% and 90.7947% and 90.4821% | 95.2753% and 95.0933% and 95.0009% | 97.4258% and 97.3045% and 97.2378% | 98.6119% and 98.5721% and 98.4808% | 57.2 | 84 | 91.3 | 95.5 | 97.5 | 98.6 | 73.1 | ~1000 nM | – | – | about 10 fold | – | – |
| COc1cccc(-c2ncc(CN3CCC(O)(CO)CC3)s2)c1 [Hit 1] | – | – | – | – | – | – | 0 | 14 | 45.8 | 56.1 | 74 | 90.2 | 0 | ~1000 nM and 1000 nM | 22000000 pmol/ Inorganic phosphate and 25300000 pmol/ Inorganic phosphate and 19400000 pmol/ Inorganic phosphate | 17200000 pmol/ Inorganic phosphate and 20300000 pmol/ Inorganic phosphate and 31000000 pmol/ Inorganic phosphate | about 10 fold | significant differences, especially in concentrations higher than 10 µM | brain dissemination / CFU recovered from the brain (C. neoformans H99 [2]): no CFU recovered from the brain; brain dissemination / CFU recovered from the brain (C. neoformans H99 [2]; listed as hit 1): no brain dissemination of yeast cells; Lung (CFU/mL) (C. neoformans H99 [2]; day 9 post infection, 10 mg/kg/day each): 950000 CFU/mL and 1400000 CFU/mL and 780000 CFU/mL; Brain (CFU/mL) (C. neoformans H99 [2]; [4]): 0 CFU/mL; Lung (CFU/mL) (C. neoformans H99 [2]; [4]): 3880000 CFU/mL and 3700000 CFU/mL and 3100000 CFU/mL; CFU recovered from the brain (C. neoformans H99 [3]): no CFU were recovered from the brain; CFU recovered from the brain (C. neoformans H99 [3]; listed as hit 1): No yeast cells were recovered from the brain; lung CFU compared to vehicle-treated mice (C. neoformans H99 [3]): did not reduce lung colony-forming units; lung CFU compared to vehicle-treated mice (C. neoformans H99 [3]; listed as hit 1): no significant difference among untreated and treated mice; Lung (CFU/mL) (C. neoformans H99 [3]; day 3 post infection): 1200000 CFU/mL and 1520000 CFU/mL and 1480000 CFU/mL; Lung (CFU/mL) (C. neoformans H99 [3]; day 9 post infection): 25000000 CFU/mL and 14200000 CFU/mL and 19700000 CFU/mL; Brain (CFU/mL) (C. neoformans H99 [3]; day 14 post infection): 0 CFU/mL; Lung (CFU/mL) (C. neoformans H99 [3]; day 14 post infection): 28600000 CFU/mL and 29600000 CFU/mL and 22000000 CFU/mL |
